pIC50: −log10 of the molar value. Structures can show the parent of a compound that is named as a salt.
Experiments:
[1] = tested on: Peripheral Blood Mononuclear Cells (PBMCs), TNFα release; assay: LPS-stimulated PBMC TNFα release assay; format: cell-based; details: human PBMC, LPS (10 ng/ml), 18 h, compound 1 h before LPS; read-out: LPS-stimulated PBMC TNFα release inhibition
Experimental: LPS-Stimulated PBMC TNFα Release Assay
Peripheral Blood Mononuclear Cells (PBMCs) were isolated from healthy human volunteer blood using a standard density gradient centrifugation technique. Citrated blood was placed onto Histopaque™ and centrifuged. The PBMCs were removed from the density gradient interface and washed in phosphate buffered saline (PBS). The PBMCs were suspended in RPMI 1640 medium (without serum), dispensed into a 96-well plate and incubated at 37° C. for 3 h in a humidified incubator. After incubation, the medium was replaced (with medium containing 1% foetal bovine serum) and the plate incubated at 37° C., for 1 h, in the presence of test compound or the appropriate vehicle. LPS (10 ng/ml), or an appropriate vehicle control, was then added to the cells and the plate returned to the incubator for 18 h. Cell-free supernatants were removed and assayed for TNFα levels using MSD plates on the Sector Imager 6000 (MesoScale).
A dose response curve to each test compound was performed and the effect of compound in each experiment was expressed as a percentage inhibition of the control TNFα release. Dose response curves were plotted and compound potency (IC50) was determined. Compounds were tested in at least three separate experiments.

p38 alpha = target: T1, p38 alpha (Homo sapiens, UniProt Q16539); assay: P38 alpha enzyme inhibition assay (Alphascreen kinase activity assay); format: biochemical; details: 100 pM p38 alpha, 2 hours preincubation at 25° C., 250 μM ATP, ATF-2 fusion protein; read-out: p38α inhibition
T1 construct: purchased Invitrogen PV3304
In short: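 Phosphorylation of ATF-2 fusion protein (0.3 μg/ml) read by AlphaScreen with anti-phospho-ATF2 antibody after 1 h kinase reaction at 25 °C, initiated by 250 μM ATP. Compounds first incubated 2 h at 25 °C with 100 pM p38 alpha in pH 7.5 HEPES buffer, 1% DMSO. IC50 derived from concentration-response data.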

T1 sequence (Q16539 whole entry, the tested form may be a part): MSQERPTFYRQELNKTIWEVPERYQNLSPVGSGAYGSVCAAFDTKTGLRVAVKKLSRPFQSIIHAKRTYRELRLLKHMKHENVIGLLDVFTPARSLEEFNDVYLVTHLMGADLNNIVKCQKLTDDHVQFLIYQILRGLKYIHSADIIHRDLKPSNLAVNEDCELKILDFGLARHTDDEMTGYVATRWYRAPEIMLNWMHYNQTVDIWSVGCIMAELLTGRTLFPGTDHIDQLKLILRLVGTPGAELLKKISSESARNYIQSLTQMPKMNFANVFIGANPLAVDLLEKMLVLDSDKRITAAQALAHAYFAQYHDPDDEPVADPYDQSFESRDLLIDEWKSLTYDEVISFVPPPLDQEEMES

pIC50 (p38 alpha)	Compound	pIC50 [1]
> 9.00	CC(C)(C)c1cc(NC(=O)N[C@H]2CC[C@@H](Oc3ccc4nnc(C(C)(C)C)n4c3)c3ccccc32)nc(C(=O)NCCO)n1 [Example 16, 4-(tert-Butyl)-6-(3-((1S,4R)-4-((3-(tert-butyl)-[1,2,4]triazolo[4,3-a]pyridin-6-yl)oxy)-1,2,3,4-tetrahydronaphthalen-1-yl)ureido)-N-(2-hydroxyethyl)pyrimidine-2-carboxamide]	> 9.00
> 9.00	C[C@@H]1CCC[C@H](C)N1c1nnc2ccc(O[C@@H]3CC[C@H](NC(=O)Nc4cc(C(C)(C)C)nc(C(=O)NCCN5CCOCC5)n4)c4ccccc43)cn12 [Example 18, 4-(tert-Butyl)-6-(3-((1S,4R)-4-((3-((2R,6S)-2,6-dimethylpiperidin-1-yl)-[1,2,4]triazolo[4,3-a]pyridin-6-yl)oxy)-1,2,3,4-tetrahydronaphthalen-1-yl)ureido)-N-(2-morpholinoethyl)pyrimidine-2-carboxamide]	8.30 to 9.00
> 9.00	C[C@@H]1CCC[C@H](C)N1c1nnc2ccc(O[C@@H]3CC[C@H](NC(=O)Nc4cc(C(C)(C)C)nc(C(=O)NCCO)n4)c4ccccc43)cn12 [Example 19, 4-(tert-Butyl)-6-(3-((1S,4R)-4-((3-((2R,6S)-2,6-dimethylpiperidin-1-yl)-[1,2,4]triazolo[4,3-a]pyridin-6-yl)oxy)-1,2,3,4-tetrahydronaphthalen-1-yl)ureido)-N-(2-hydroxyethyl)pyrimidine-2-carboxamide]	> 9.00
> 9.00	C[C@@H]1CCC[C@H](C)N1c1nnc2ccc(O[C@@H]3CC[C@H](NC(=O)Nc4cc(C(C)(C)C)nc(C(=O)NCCN(C)C)n4)c4ccccc43)cn12 [Example 20, 4-(tert-Butyl)-N-(2-(dimethylamino)ethyl)-6-(3-((1S,4R)-4-((3-((2R,6S)-2,6-dimethylpiperidin-1-yl)-[1,2,4]triazolo[4,3-a]pyridin-6-yl)oxy)-1,2,3,4-tetrahydronaphthalen-1-yl)ureido)pyrimidine-2-carboxamide]	8.30 to 9.00
8.00 to 9.00	CC(C)(C)c1cc(NC(=O)N[C@H]2CC[C@@H](Oc3ccc4nnc(C(C)(C)C)n4c3)c3ccccc32)nc(CN2CCOCC2)n1 [Example 21, 1-(6-(tert-Butyl)-2-(morpholinomethyl)pyrimidin-4-yl)-3-((1S,4R)-4-((3-(tert-butyl)-[1,2,4]triazolo[4,3-a]pyridin-6-yl)oxy)-1,2,3,4-tetrahydronaphthalen-1-yl)urea]	< 8.30
8.00 to 9.00	CN1CCN(C(C)(C)c2nnc3ccc(O[C@@H]4CC[C@H](NC(=O)Nc5cc(C(C)(C)C)nc(CO)n5)c5ccccc54)cn23)CC1 [Example 23, 1-(6-(tert-Butyl)-2-(hydroxymethyl)pyrimidin-4-yl)-3-((1S,4R)-4-((3-(2-(4-methylpiperazin-1-yl)propan-2-yl)-[1,2,4]triazolo[4,3-a]pyridin-6-yl)oxy)-1,2,3,4-tetrahydronaphthalen-1-yl)urea]	< 8.30
> 9.00	CN(C)CC(=O)NCc1nc(NC(=O)N[C@H]2CC[C@@H](Oc3ccc4nnc(C(C)(C)C)n4c3)c3ccccc32)cc(C(C)(C)C)n1 [Example 24, N-((4-(tert-Butyl)-6-(3-((1S,4R)-4-((3-(tert-butyl)-[1,2,4]triazolo[4,3-a]pyridin-6-yl)oxy)-1,2,3,4-tetrahydronaphthalen-1-yl)ureido)pyrimidin-2-yl)methyl)-2-(dimethylamino)acetamide]	< 8.30
> 9.00	CC(C)(C)c1cc(NC(=O)N[C@H]2CC[C@@H](Oc3ccc4nnc(C5(C)CCCC5)n4c3)c3ccccc32)nc(C(=O)NCCN2CCOCC2)n1 [Example 25, 4-(tert-Butyl)-6-(3-((1S,4R)-4-((3-(1-methylcyclopentyl)-[1,2,4]triazolo[4,3-a]pyridin-6-yl)oxy)-1,2,3,4-tetrahydronaphthalen-1-yl)ureido)-N-(2-morpholinoethyl)pyrimidine-2-carboxamide]	> 9.00
8.00 to 9.00	CC(=O)OCc1nc(NC(=O)N[C@H]2CC[C@@H](Oc3ccc4nnc([C@]5(C)CCCN5C)n4c3)c3ccccc32)cc(C(C)(C)C)n1 [Example 26, (4-(tert-Butyl)-6-(3-((1S,4R)-4-((3-((S)-1,2-dimethylpyrrolidin-2-yl)-[1,2,4]triazolo[4,3-a]pyridin-6-yl)oxy)-1,2,3,4-tetrahydronaphthalen-1-yl)ureido)pyrimidin-2-yl)methyl acetate]	8.30 to 9.00
> 9.00	CN1CCC[C@@]1(C)c1nnc2ccc(O[C@@H]3CC[C@H](NC(=O)Nc4cc(C(C)(C)C)nc(CO)n4)c4ccccc43)cn12 [Example 27, 1-(6-(tert-Butyl)-2-(hydroxymethyl)pyrimidin-4-yl)-3-((1S,4R)-4-((3-((S)-1,2-dimethylpyrrolidin-2-yl)-[1,2,4]triazolo[4,3-a]pyridin-6-yl)oxy)-1,2,3,4-tetrahydronaphthalen-1-yl)urea]	> 9.00
> 9.00	CN(C)CCNC(=O)c1nc(NC(=O)N[C@H]2CC[C@@H](Oc3ccc4nnc([C@]5(C)CCCN5C)n4c3)c3ccccc32)cc(C(C)(C)C)n1 [Example 28, 4-(tert-Butyl)-N-(2-(dimethylamino)ethyl)-6-(3-((1S,4R)-4-((3-((S)-1,2-dimethylpyrrolidin-2-yl)-[1,2,4]triazolo[4,3-a]pyridin-6-yl)oxy)-1,2,3,4-tetrahydronaphthalen-1-yl)ureido)pyrimidine-2-carboxamide]	8.30 to 9.00
> 9.00	CN1CCC[C@@]1(C)c1nnc2ccc(O[C@@H]3CC[C@H](NC(=O)Nc4cc(C(C)(C)C)nc(C(=O)NCCO)n4)c4ccccc43)cn12 [Example 29, 4-(tert-Butyl)-6-(3-((1S,4R)-4-((3-((S)-1,2-dimethylpyrrolidin-2-yl)-[1,2,4]triazolo[4,3-a]pyridin-6-yl)oxy)-1,2,3,4-tetrahydronaphthalen-1-yl)ureido)-N-(2-hydroxyethyl)pyrimidine-2-carboxamide]	> 9.00
8.00 to 9.00	CN1CCC[C@@]1(C)c1nnc2ccc(O[C@@H]3CC[C@H](NC(=O)Nc4cc(C(C)(C)C)nc(NS(C)(=O)=O)n4)c4ccccc43)cn12 [Example 30, N-(4-(tert-Butyl)-6-(3-((1S,4R)-4-((3-((S)-1,2-dimethylpyrrolidin-2-yl)-[1,2,4]triazolo[4,3-a]pyridin-6-yl)oxy)-1,2,3,4-tetrahydronaphthalen-1-yl)ureido)pyrimidin-2-yl)methanesulfonamide]	8.30 to 9.00
> 9.00	CN(C)CCNC(=O)c1nc(NC(=O)N[C@H]2CC[C@@H](Oc3ccc4nnc(C5(C)CC5)n4c3)c3ccccc32)cc(C(C)(C)C)n1 [Example 32, 4-(tert-Butyl)-N-(2-(dimethylamino)ethyl)-6-(3-((1S,4R)-4-((3-(1-methylcyclopropyl)-[1,2,4]triazolo[4,3-a]pyridin-6-yl)oxy)-1,2,3,4-tetrahydronaphthalen-1-yl)ureido)pyrimidine-2-carboxamide]	< 8.30
8.00 to 9.00	CN(C)CCNC(=O)c1nc(NC(=O)N[C@H]2CC[C@@H](Oc3ccc4nnc([C@]5(C)CCCN5)n4c3)c3ccccc32)cc(C(C)(C)C)n1 [Example 34, 4-(tert-Butyl)-N-(2-(dimethylamino)ethyl)-6-(3-((1S,4R)-4-((3-((S)-2-methylpyrrolidin-2-yl)-[1,2,4]triazolo[4,3-a]pyridin-6-yl)oxy)-1,2,3,4-tetrahydronaphthalen-1-yl)ureido)pyrimidine-2-carboxamide]	< 8.30
> 9.00	COc1ncc(C(C)(C)C)cc1NC(=O)N[C@H]1CC[C@@H](Oc2ccc3nnc([C@@H]4CCCN4C)n3c2)c2ccccc21 [Example 35, 1-(5-(tert-Butyl)-2-methoxypyridin-3-yl)-3-((1S,4R)-4-((3-((S)-1-methylpyrrolidin-2-yl)-[1,2,4]triazolo[4,3-a]pyridin-6-yl)oxy)-1,2,3,4-tetrahydronaphthalen-1-yl)urea hydrochloride Salt]	> 9.00
8.00 to 9.00	CCOC(=O)c1nc(NC(=O)N[C@H]2CC[C@@H](Oc3ccc4nnc([C@]5(C)CCCN5C)n4c3)c3ccccc32)cc(C(C)(C)C)n1 [Example 36, Ethyl 4-(tert-butyl)-6-(3-((1S,4R)-4-((3-((S)-1,2-dimethylpyrrolidin-2-yl)-[1,2,4]triazolo[4,3-a]pyridin-6-yl)oxy)-1,2,3,4-tetrahydronaphthalen-1-yl)ureido)pyrimidine-2-carboxylate]	> 9.00
> 9.00	C[C@H]1CCCCN1c1nnc2ccc(O[C@@H]3CC[C@H](NC(=O)Nc4cc(C(C)(C)C)nc(C(=O)NCCN(C)C)n4)c4ccccc43)cn12 [Example 37, 4-(tert-Butyl)-N-(2-(dimethylamino)ethyl)-6-(3-((1S,4R)-4-((3-((S)-2-methylpiperidin-1-yl)-[1,2,4]triazolo[4,3-a]pyridin-6-yl)oxy)-1,2,3,4-tetrahydronaphthalen-1-yl)ureido)pyrimidine-2-carboxamide]	< 8.30

From patent US10364245B2 (CHIESI FARMACEUTICI S.p.A., priority 2017, dated 2019)
